Where two headings read alike, the source gives them in different places.
Assays:
sGC = test: cGMP neuronal cell-based assay (rat primary neurons); conditions: rat primary hippocampal neurons, DETA-NO 10 μM or 30 μM, cGMP by LC-MS/MS; I-20 and I-14: average of free acid and sodium salt; read-out: sGC Neuron EC50
Experimental: Rat primary neurons were isolated from fetuses of 18-day pregnant Sprague-Dawley females. The fetuses were collected in Hanks' balanced salt solution (HBSS) and brains were rapidly removed. The cerebral hippocampi were isolated and mechanically fragmented. Further tissue digestion was performed with 0.25% (wt/vol) trypsin solution in HBSS without Ca2+ and Mg2+ for 15 min at 37° C. After trypsination, cells were washed and resuspended in neurobasal medium supplemented with 0.5 mM L-glutamine, 12.5 uM glutamic acid, 2% B-27 and 100 U/mL penicillin, and 100 μg/mL streptomycin. Cells were plated at a density of 26×10^3 or 3×10^4 or 4×10^4 cells/well in a poly-D-lysine coated 384-well flat clear-bottom plate (Corning Cat No 354662). Cells were incubated 6-7 days at 37° C. in a humidified chamber with 5% CO2. Media was removed and cells were washed 1× with HBSS containing Ca2+ and Mg2+, and replaced with 40 uL HBSS containing 0.5 mM IBMX, and incubated for 15 minutes at 37° C. […] Following centrifugation at 4° C. for 5 minutes at 1000×g to pellet cell debris, the supernatant was aspirated to a clean plate and the samples were analyzed for cGMP content. cGMP concentrations were determined from each sample using LC-MS/MS.
Concentration response data were analyzed using a 4-parameter fit (log (agonist) vs. response-variable slope). […]

[1] = Non-human primate CSF pharmacokinetics (Study B), cisterna magna versus lumbar sampling; assay type: in vivo, Macaca fascicularis; conditions: for Kp uu at 3 h / Kp uu at 24 h: female, Cynomolgus macaque, cynomolgus monkey, read-out: geomean ratio of CSF concentration to unbound concentration in plasma (Kp,uu)
Text: The objective of this study was to investigate the pharmacokinetics of Compound 1-14 after administration of a single […] bolus or oral gavage dose to cynomolgus monkeys on Day 1 and to evaluate differences in pharmacokinetic values when comparing CSF collected at the cisterna magna (as in Example 10A) versus lumbar locations. [table] • Species: Macaca fascicularis • Strain: Cynomolgus macaque • Number of Females: 4 • Age: Adult • Weight: 2.5-4 kg Single doses of Compound I-14 were administered intravenously as a bolus injection of a solution at 0.15 mg/kg and orally by gavage as a suspension at 0.5 mg/kg to a group of four female cynomolgus monkeys in a crossover design. Plasma samples were collected at 0.25 (15 min), 0.5 (30 min), 1, 2, 3, 6, 8, 12, 24, 32, and 48 h following the IV and PO doses. CSF samples were collected at 3 and 24 h for all animals from the cisterna magna in groups 1 and 2 and the lumbar from groups 3 and 4. Sample extracts were prepared by protein precipitation and Compound I-14 concentrations were measured using LC-MS/MS. Pharmacokinetic parameters were calculated.

[2] = CSF (cisterna magna) / unbound plasma, IV bolus 0.15 mg/kg, cisterna magna sampling
[3] = CSF (cisterna magna) / unbound plasma, oral gavage 0.5 mg/kg, cisterna magna sampling
[4] = CSF (lumbar) / unbound plasma, IV bolus 0.15 mg/kg, lumbar sampling
[5] = CSF (lumbar) / unbound plasma, oral gavage 0.5 mg/kg, lumbar sampling

EC50 (sGC): ≤ 100 nM
presence of compound in CSF ([1]; IV and PO administration, cisterna magna and lumbar sampling): observed in the CSF at 3 and 24 hours
Kp uu at 3 h [1, 2]: 2 to 3
Kp uu at 3 h [1, 3]: 2 to 3
Kp uu at 24 h [1, 2]: 1 to 2
Kp uu at 24 h [1, 3]: 2 to 3
Kp uu at 3 h [1, 4]: 2 to 3
Kp uu at 3 h [1, 5]: 2 to 3
Kp uu at 24 h [1, 4]: 1 to 2
Kp uu at 24 h [1, 5]: 2 to 3
SMILES: Cc1cc(F)c(Cc2nc(-c3ncc(F)c(O)n3)cn3ccnc23)cc1F [Compound I-14, 5-fluoro-2-(8-(2,5-difluoro-4-methylbenzyl)imidazo[1,2-a]pyrazin-6-yl)pyrimidin-4-ol]

Reference: US20260151391A1, “TREATMENT OF MITOCHONDRIAL DISEASES WITH sGC STIMULATORS” (Tisento Therapeutics Inc., priority 2022, published 2026)
